In patent publication US10213445B2, “Compositions and methods of diazeniumdiolate-based prodrugs for treating cancer” (ARIZONA BOARD OF REGENTS ON BEHALF OF THE UNIVERSITY OF …, priority 2014, dated 2019):

Experiments:
[1] = system: MDA-MB-231 cells; assay: Oxidation of DCF (oxidant level) in cells; assay type: cell-based, human; conditions: 100 μM, 37° C., MDA-MB-231 as representative example
Experimental: DCF loaded cells were treated with IPA/NO-aspirin (blue), DEA/NO-aspirin (green), IPA/NO (magenta), DEA/NO (brown), aspirin (red) or DMSO (0.1%; black) at 37° C., and the fluorescence at 535 nm was measured in a time-dependent manner. Data are plotted as mean±SD (n=4).

[2] = system: cleaved PARP in MDA-MB-231 cells; assay: PARP cleavage by Western blot; assay type: cell-based, human; conditions: 1-44 h, preliminary analysis
Experimental: The cells were treated with 50 μM IPA/NO-aspirin (blue) or 75 μM DEA/NO-aspirin (green), respectively at 37° C., and protein was collected at various time points (1-44 h). Lanes 1-6 (20 μg of protein): IPA/NO-aspirin at 1, 3, 6, 10, 20, 44 h; […]: DEA/NO-aspirin at 1, 6, 10, 20, 30, 44 h; Lane 15: control. Cleaved PARP levels at different time points were quantified by Western blot with respect to control, which was treated as 100%. HPRT was used as the loading control.
Since a number of chemotherapies and radiation therapy are based on inducing DNA damage in cancer cells, inhibition of PARP by HNO donors may increase the efficacy of these treatments. Furthermore, IPA/NO-aspirin is able to not only induce DNA damage but also to impede DNA repair.

[3] = target: T1, GAPDH in MCF-10A cells (Homo sapiens, UniProt P04406); assay: GAPDH activity in cells; assay type: cell-based; conditions: 0-100 μM, 1 h, 37° C.
T1 construct: host or cells: MDA-MB-231; MCF-10A
Experimental: (§1) The cells were treated with varied concentrations (0, 25, 50, 75, 100 μM) of IPA/NO-aspirin (blue) or DEA/NO-aspirin (green) for 1 h at 37° C. GAPDH activity was assessed by measuring fluorescence intensity at 570 nm. Data are plotted as mean±SD (n=3).
(§2) GAPDH is a critical glycolytic enzyme that can play an important role in cancer therapy as solid tumors often utilize glycolytic pathways even during normoxia to meet their energy requirements. Thus, inhibition of GAPDH can diminish ATP availability for tumor cells. GAPDH is also involved in initiation of apoptosis and in DNA repair.

[4] = target: T2, GAPDH in MDA-MB-231 cells (Homo sapiens, UniProt P04406); assay: GAPDH activity in cells; assay type: cell-based; conditions: MDA-MB-231, 0-100 μM, 1 h, 37° C.
T2 construct: host or cells: MDA-MB-231; MCF-10A
Experimental: as §1, §2

[5] = system: MDA-MB-231 cells; assay: Alkaline Comet assay of DNA damage; assay type: cell-based, human; conditions: 75 μM, 8 hours, 37° C.
Experimental: Tail length: mean±SEM, n≥150.
Autoxidation of both NO and HNO leads to species that are capable of damaging DNA. Conversion of NO to N2O3 can induce mutations through base deamination) while the product of the reaction of HNO with O2 can oxidize and cleave DNA. To investigate the possibility of RNS-induced DNA damage as a mechanism of cytotoxicity, the effect of the NONO-aspirin prodrugs was studied with the alkaline Comet assay in MDA-MB-231 cells. After 8 hours, the damage induced by treatment with 50 μM IPA/NO-aspirin was significant (FIG. 7A) and similar to the H2O2 positive control (FIG. 7C). […] This may be an important factor in the observed enhanced cytotoxicity of IPA/NO-aspirin. In particular, IPA/NO-aspirin is able to damage DNA (FIG. 7) including inducing double strand breaks, in a manner similar to radiation therapy and chemotherapies such as doxorubicin.

[6] = system: ER-α; assay: ER-α levels (mRNA of ER1) in ER-α(−) cells; assay type: cell-based; conditions: FIG. 20
[7] = system: prostaglandin E2 (PGE2); conditions: cited from earlier work
[8] = system: BCL-2; assay: BCL-2 expression; assay type: cell-based; conditions: FIG. 18

T2 sequence (P04406 whole entry): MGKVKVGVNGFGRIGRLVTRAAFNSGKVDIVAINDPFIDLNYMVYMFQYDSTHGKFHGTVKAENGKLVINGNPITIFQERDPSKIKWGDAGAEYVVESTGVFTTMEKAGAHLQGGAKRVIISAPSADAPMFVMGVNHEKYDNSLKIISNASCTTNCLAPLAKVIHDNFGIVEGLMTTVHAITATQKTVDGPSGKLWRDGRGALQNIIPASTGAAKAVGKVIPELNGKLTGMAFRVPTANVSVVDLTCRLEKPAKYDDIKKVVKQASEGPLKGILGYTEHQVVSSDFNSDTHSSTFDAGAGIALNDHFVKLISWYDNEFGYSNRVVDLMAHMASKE
T1 sequence (P04406 whole entry): as above

Row | Compound | oxidation of DCF (fluorescence intensity) [1] | level of cleaved PARP ([2]; 75 μM) | GAPDH activity [3] | GAPDH activity [4] | DNA damage (Comet assay) [5] | ER-α levels [6] | level of cleaved PARP ([2]; 50 μM) | level of PGE2 [7] | BCL-2 expression [8]
1 | CCN(CC)[N+]([O-])=NOCOC(=O)c1ccccc1OC(C)=O [DEA/NO-aspirin, O2-(Acetylsalicyloyloxymethyl)-1-(N,N-Diethylamino)-diazen-1-ium-1,2-diolate] | minimal impact | relatively short-lived | not inhibitory in either cell line | not inhibitory in either cell line | did not differ from the DMSO-treated negative control | – | – | – | –
2 | CC(=O)Oc1ccccc1C(=O)OCON=[N+]([O-])NC(C)C [IPA/NO-aspirin, O2-(Acetylsalicyloyloxymethyl)-1-(N-isopropylamino)-diazen-1-ium-1,2-diolate] | significant increase in fluorescence intensity | – | did not affect GAPDH activity | inhibited GAPDH activity in a concentration (FIG. 9A) and time-dependent-manner | – | inhibit the aspirin effect | increases the level of cleaved PARP in a longer-term fashion | reduction in PGE2 levels | inhibits the aspirin effect
